According to patent US5045566A, “Novel imidate insecticides” (ICI Americas Inc., priority 1989, dated 1991):

Tests used:
Type in all cases: in vivo
[1] = test system: Tobacco Budworm [Heliothis virescens (Fabricius)] eggs; assay: Tobacco budworm eggs (TBW-E); conditions: percent in solution; 2-day old eggs
Procedure, shortened: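 2-day eggs on paper towel, acetone dip, 0.1% and below; petri dish with larval diet, 78° F. Mortality read after control hatch and larval feeding. LC50 = % compound in solution, from dose-mortality curve.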

[2] = test system: Black Bean Aphid [Aphis fabae (Scop.)]; assay: Black bean aphid spray test on nasturtium (BBA), 48 hours; conditions: percent of test compound in sprayed solution
Procedure, shortened: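 LC50, given as percent test compound in the sprayed liquid, was calculated from dosage-mortality curves using concentrations from 0.05% downward. Sprays in 50:50 acetone-water went to runoff on ~5 cm nasturtiums carrying 25-50 aphids of mixed ages, one day after infestation. Deaths were counted 48 h later under greenhouse conditions.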

[3] = test system: Housefly [Musca domestica]; assay: Housefly contact mortality in dishes (HF), 48 hours; conditions: μg of test compound per 25 female flies
Procedure, shortened: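 Dose range started at 100 μg per 25 female flies and went downward. Insects (1-2 days old) contacted a dried acetone/peanut-oil deposit in dishes; LC50 values come from dosage-mortality curves at 48 h.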

[4] = test system: Rice water weevil [Lissorhoptrus oryzophilus (Kuschel)]; assay: Rice water weevil topical (RWW), 48 hours; conditions: μg of test compound per weevil, female adults
Experimental: The compounds in Tables 1 and 2 above were tested for insecticidal activity using the following testing procedures. LC50 values, based on the results of these tests and calculated according to dosage-mortality curves, are expressed in Table 3.
Rice water weevil [Lissorhoptrus oryzophilus (Kuschel)]:
Test compounds were diluted in acetone. Droplets (1 ul) of test solutions were applied to the ventral abdomens of ten female adult weevils. The treated weevils were placed in containers with wet cotton balls and rice foliage. The containers were covered and kept at a temperature of about 25° C. Mortality was recorded after 48 hours. Test concentrations ranged from […] down to that at which 50% mortality occurred. The LC50 values are expressed below in Table 3 under the heading "RWW" in terms of μg of test compound per weevil.

[5] = test system: Beet Armyworm (Spodoptera exigua); assay: Beet armyworm leaf dip (BAW), 5 days; conditions: percent in solution; second-instar larvae; five days
Procedure, shortened: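 Sugar beet leaves dipped 2–3 s in compound diluted in 50:50 acetone-water, dried, then infested with five second-instar larvae in humid petri dishes. Mortality scored at 5 days; concentrations from 0.1% downward. LC50 from dosage-mortality curves, expressed as percent compound in solution.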

[6] = test system: Aster Leafhopper [Macrosteles fascifrens (Stal)]; assay: Aster leafhopper on dipped oat seedlings (LH), 48 hours; conditions: percent in solution, adults/nymphs
Procedure, shortened: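 Three ~10 cm oat seedlings per cup were dipped 2-3 seconds in 50-50 acetone-water compound solutions, dried, and caged with ten adult/nymph leafhoppers. Mortality was counted after 48 hours at concentrations from 0.05% downward. LC50, as percent compound in solution, came from dosage-mortality curves.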

[7] = test system: Cabbage Looper [Trichoplusia ni (Hubner)]; assay: Cabbage looper leaf dip (CL), 3-5 days; conditions: percent in solution, second-instar larvae
Procedure, shortened: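 LC50 values, given as percent test compound in solution, were calculated from dosage-mortality curves. Squash cotyledons were immersed 2-3 s in acetone-water (50-50) dilutions starting at 0.1%, dried on a screen, then infested with five second-instar larvae. Mortality was read 3-5 days on.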

[8] = test system: Tobacco Budworm [Heliothis virescens (Fabricius)] larvae; assay: Tobacco budworm larvae, contact (TBW-C), 5 days; conditions: percent in solution, second-instar larvae
Procedure, shortened: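 Cotton cotyledons dipped 2–3 s in compound in 50-50 acetone-water, dried, then infested with 5 second-instar larvae and held 5 days at high humidity. Mortality scored; LC50 from dosage-mortality curves, expressed as percent compound in solution, concentrations from 0.1% downward.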

[9] = test system: Maize weevil [Sitophilus zeamais (Motschulsky)]; assay: Maize weevil on dipped corn seeds (MW), 48 hours; conditions: percent in solution, adult weevils
Procedure, shortened: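 LC50, given as percent of compound in dipping solution, comes from dosage-mortality curves over concentrations descending from 0.01%. Four corn seeds soaked 2-3 s in 50:50 acetone:water solution were dried and held with 10 adult weevils, about 25° C, mortality read after 48 h.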

| Compound | LC50 TBW E (eggs) [1] | LC50 BBA [2] | LC50 HF [3] | LC50 RWW [4] | LC50 BAW [5] | LC50 LH [6] | LC50 CL [7] | LC50 TBW C (contact) [8] | LC50 MW [9] |
| --- | --- | --- | --- | --- | --- | --- | --- | --- | --- |
| CC(C)C(=Nc1cc(F)cc(F)c1)OCc1cccc(Oc2ccccc2)c1 [Compound 55] | 0.06% | 0.003% | > 100 µg | > 2.5 µg | 0.006% | 0.0005% | 0.0017% | 0.004% |  |
| FC(F)(F)c1cccc(N=C(OCc2cccc(Oc3ccccc3)c2)C(Cl)Cl)c1 [Compound 66, N-(3-Trifluoromethylphenyl)-O-(3-phenoxybenzyl)dichloroacetimidate] | 0.06% | 0.0003% | 9.7 µg | > 2.5 µg | 0.0065% | 0.001% | < 0.0025% |  |  |
| CC(C)C(=Nc1ccc(F)c(Cl)c1)OCc1cccc(Oc2ccccc2)c1 [Compound 81, N-(3-Chloro-4-fluorophenyl)-O-(3-phenoxybenzyl)isobutyrylimidate] | 0.007% | 0.001% | 4 µg | > 0.5 µg | 0.003% | 0.0003% | 0.0006% | 0.0009% | 0.005% |
| CC(C)C(=Nc1ccc(F)c(Cl)c1)OCc1ccc(F)c(Oc2ccccc2)c1 [Compound 82] | 0.006% | 0.00021% | 2.5 µg | 0.086 µg | 0.0025% | 0.0001% | 0.00018% | 0.0008% |  |
| CC(C)C(=Nc1ccc(F)c(Cl)c1)OCc1cccc(Oc2ccc(F)cc2)c1 [Compound 89] | 0.04% | 0.003% | 5 µg | > 2.5 µg | 0.009% | 0.001% | 0.00003% | 0.0005% | 0.005% |
| CC(C)C(=Nc1ccc2c(c1)OCO2)OCc1cccc(Oc2ccccc2)c1 [Compound 180] | 0.03% | 0.0003% | 2 µg | > 2.5 µg | 0.005% | 0.0015% | 0.0004% | 0.003% | 0.008% |
| CC(C)C(=Nc1ccc2c(c1)OCO2)OCc1ccc(F)c(Oc2ccccc2)c1 [Compound 181] | 0.01% |  | 25 µg | > 2.5 µg | 0.001% |  | 0.0005% | 0.001% | 0.005% |
| CC(C)C(=Nc1ccc(F)c(Cl)c1)OCc1ccc(F)c(Oc2ccc(F)cc2)c1 [Compound 216] | 0.005% | 0.00025% | 2 µg | 0.067 µg | 0.0007% | 0.00025% | 0.000007% | 0.00018% | 0.0017% |
| CC(C)C(=Nc1ccc(F)c(Cl)c1)OCc1cccc(Oc2ccc(Cl)cc2)c1 [Compound 239] | 0.025% | 0.001% | 14 µg | > 2.5 µg | 0.005% | 0.002% | 0.00015% | 0.0005% | 0.006% |
| CC(C)C(=Nc1ccc2c(c1)OC(F)(F)O2)OCc1cccc(Oc2ccc(F)cc2)c1 [Compound 244] | > 0.1% | 0.0006% | 14 µg | 0.09 µg | 0.002% |  | 0.00004% | 0.00025% | 0.0025% |
| CC(C)C(=Nc1ccc2c(c1)OC(F)(F)O2)OCc1cccc(Oc2ccccc2)c1 [Compound 245] | 0.016% | 0.0003% | 20 µg | > 2.5 µg | 0.001% |  | 0.0035% | 0.0015% | 0.006% |
| CC(C)C(=Nc1ccc(F)c(Cl)c1)OCc1ccc(F)c(Oc2ccc(Cl)cc2)c1 [Compound 267] | 0.015% | 0.0003% | 8.4 µg | 0.11 µg | 0.0012% | 0.002% | 0.00008% | 0.0003% | 0.0027% |
| CC(C)C(=Nc1ccc(F)c(I)c1)OCc1ccc(F)c(Oc2ccc(F)cc2)c1 [Compound 281] | 0.006% | 0.0003% | 5 µg | > 2.5 µg | 0.0027% |  | 0.00002% | 0.00025% | 0.005% |
| CC(C)C(=Nc1ccc2c(c1)OC(F)(F)O2)OCc1ccc(F)c(Oc2ccccc2)c1 [Compound 285] | 0.005% |  | 36 µg | 0.13 µg | 0.0006% |  | 0.000075% | 0.00017% | 0.005% |
| CC(C)C(=Nc1ccc(C(F)(F)F)cc1)OCc1ccc(F)c(Oc2ccc(Cl)cc2)c1 [Compound 324] | 0.025% | 0.0003% | > 100 µg | 0.06 µg | 0.0024% |  | 0.00014% | 0.0004% |  |
| CC(C)C(=Nc1ccc(F)cc1)OCc1ccc(F)c(Oc2ccc(Cl)cc2)c1 [Compound 325] | 0.037% | 0.0001% | 5 µg | > 2.5 µg | 0.0025% |  | 0.00012% | 0.0006% |  |
| CC(C)C(=Nc1ccc(F)c(Cl)c1F)OCc1cccc(Oc2ccc(Cl)cc2)c1 [Compound 331] | 0.04% | > 0.05% | 20 µg | > 2.5 µg | 0.002% |  | 0.0002% | 0.0004% |  |
| CC(C)C(=Nc1ccc(F)c(F)c1)OCc1ccc(F)c(Oc2ccccc2)c1 [Compound 336] | 0.02% | 0.0003% | 3.6 µg | > 2.5 µg | 0.001% |  | 0.00017% | 0.0005% | 0.0091% |
| CC(C)C(=Nc1ccc(C(F)(F)F)cc1)OCc1ccc(F)c(Oc2ccccc2)c1 [Compound 337] | 0.008% | 0.0003% | 21 µg | 0.067 µg | 0.0005% |  | 0.0007% | 0.0005% | 0.0053% |
| CC(C)C(=Nc1ccc(F)c(F)c1F)OCc1ccc(F)c(Oc2ccc(F)cc2)c1 [Compound 349] | > 0.1% | > 0.05% | 4.9 µg | > 2.5 µg | > 0.1% |  | 0.00007% | 0.0004% | > 0.01% |
